The source of these data is patent publication US11207369B2, “Compositions and methods for modulating ciliogenesis” (UNIVERSITY OF PITTSBURGH-OF THE COMMONWEALTH SYSTEM OF …, priority 2017, dated 2021).

The subject of data set [1] is human nasal epithelial cells. Kind of data set: Ex vivo reciliation of human nasal epithelial cells in suspension culture (video-microscopy). It counts as cell-based. The note with it: 2 nM DAPT vs regular media. As to the method:
Cells were immediately placed into 5 ml Leibovitz-15 medium prior to processing for stationary culture.
These cells were spun down, the supernatant was aspirated, cells were resuspended in 6 ml of stationary medium, and then plated onto 3 wells of a 6-well rat tail collagen coated plate. The media was changed 48-72 hours post plating and fed every 2 days until confluence was reached. Following confluence, the treatment of mouse tracheal epithelial cells and human nasal epithelial cells was identical e.g., placement into suspension culture, video microscopy, etc. siRNA knockdown was only performed in mouse tracheal tissue due to the paucity of human nasal epithelial cells.
Once confluence was reached, typically occurring between about 7 to 10 days, the stationary media was aspirated, and collagen was digested with 1 ml of Collagenase 4 (200 IU/ml, Worthington, LS004210) for 75-90 mins at 37° C./5% CO2. After incubation, collagenase was neutralized using 2 ml of Suspension media (500 ml DMEN/F12, 50 ml NuSerum, 10 ml 100× Antibiotics-Antimycotic). Cells adherent to the bottom of the plate were gently scrapped off with a cell scraper (Fisherbrand, 08-100-241). […]
Reciliation was observed by about days 7 to 9 with high-speed video-microscopy (200 fps) with a 60× oil-immersion lens (FIG. 2A). […] The outlined total surface and ciliated surface alone was quantified. Extent of ciliation was calculated by dividing the length of ciliated surface by the length of the entire surface available for ciliation, and converted to a percentage.
To measure cilia length in reciliated nasal tissue, each recording was processed with a custom script written for Fiji, an open-source image analysis software (Schindelin, et al., Nat. Methods, 2012, 9:676-682). This script used the Temporal Median filter to segment patches of cilia based on movement, and the Thickness tool in the BoneJ analysis toolkit (Doube, et al., Bone, 2010, 47:1076-1079) measured average cilia length. Ciliary beat frequency was measured in cilia beats per second (Hertz).] […]

For data set [2], the system named is ependymal cells. Kind of data set: Intrathecal administration to subjects with hydrocephalus, video-microscopy of ependymal cells. Format: in vivo, human. The note with it: approx. 1 mg/kg intrathecal once. The method, then:
Ten subjects are diagnosed with hydrocephalus. Each subject provides informed consent regarding providing epithelial cell samples and to receiving a blinded treatment of either DAPT or a control placebo. Intrathecal biopsy is used to obtain ependymal cells from the cerebrospinal fluid of each subject. The ependymal cells are placed into suitable medium such as Leibovitz-15 medium. Thereafter, cell samples are evaluated for percentage ciliation, cilia length, and/or cilia beat frequency by video-microscopy, and the results are recorded. Video-microscopy confirms each subject has ependymal cells which are reduced in cilia number, cilia length, and/or cilia beat frequency compared to averages or standards present in the medical literature. […]
On day eight post-injection, ependymal cells are obtained from the cerebrospinal fluid of each subject by intrathecal biopsy. […] Thereafter, cell samples are evaluated for percentage ciliation, cilia length, and/or cilia beat frequency by video-microscopy, and the results are recorded. Video-microscopy confirms each of the five DAPT-treated subjects has ependymal cells which are increased in cilia number, cilia length, and/or cilia beat frequency as compared to both 1) the ependymal cells of placebo-treated subjects, and 2) the pre-treatment measurements recorded for ependymal cells of each respective DAPT-treated subject. […]

Data set [3] deals with airway epithelial cells. Kind of data set: Inhalational administration to subjects with COPD, video-microscopy of airway epithelial cells. Format: in vivo, human. The note with it: approx. 1 mg/kg inhaled once per day for seven days. As to the method: Ten subjects are diagnosed with Chronic Obstructive Pulmonary Disease (COPD). Each subject provides informed consent regarding providing epithelial cell samples and to receiving a blinded treatment of either DAPT or a control placebo. […] The epithelial cells are placed into suitable medium such as Leibovitz-15 medium. Thereafter, cell samples are evaluated for percentage ciliation, cilia length, and/or cilia beat frequency by video-microscopy, and the results are recorded. Video-microscopy confirms each subject has epithelial cells which are reduced in cilia number, cilia length, and/or cilia beat frequency compared to averages or standards present in the medical literature.
DAPT is inhalationally administered to five of the subjects via a nebulizer or an inhaler (hereinafter, “DAPT-treated subjects”). […]
The epithelial cells are placed into suitable medium such as Leibovitz-15 medium. Thereafter, cell samples are evaluated for percentage ciliation, cilia length, and/or cilia beat frequency by video-microscopy, and the results are recorded. Video-microscopy confirms each of the five DAPT-treated subjects has epithelial cells which are increased in cilia number, cilia length, and/or cilia beat frequency as compared to both 1) the epithelial cells of placebo-treated subjects, and 2) the pre-treatment measurements recorded for epithelial cells of each respective DAPT-treated subject. […]

Data set [4] deals with mouse tracheal epithelial cells. Kind of data set: Ex vivo reciliation of mouse tracheal epithelial cells in suspension culture (video-microscopy). Format: cell-based. An excerpt:
All animal protocols were approved by the University of Pittsburgh Animal Care and Use Committee. Wild-type, C57B6, adult mice (6-8 weeks of age) were euthanized with inhalational CO2, anterior neck regions were washed with 70% ethanol, and a transverse incision was made across the neck at the mid-cervical level. […] The trachea was gently dissected from the underlying adherent esophagus and connective tissue, pulled out and transected proximally first from the larynx and then distally as far down as possible, close to the carina, and placed in a petri dish containing about 10 ml Leibovitz-15 solution (Gibco; 21083). Isolated tracheas were cleaned of adherent muscle tissue, blood vessels and fat under a dissecting microscope, then incised, splaying the trachea length-wise.
Twelve ml of Leibovitz-15 solution were placed in a 15 ml falcon tube, and 6 cleaned, incised tracheas were added to each tube. Pronase (Protease from Streptomyces griseus, Sigma, P5147) was added to a final concentration of 1.5 mg/ml (Stock solution, 150 mg/ml, 100×) and placed in 4° C. overnight with gentle shaking. After incubation, Pronase was neutralized with addition of fetal bovine serum to a final concentration of 10% (1.2 ml/tube). Tracheas and denuded epithelial cells were centrifuged at 1200 rpms for 6 minutes. Supernatant was aspirated, and trachea/cells were re-suspended in 12 ml Stationary media (500 ml DMEM/F12, 10 ml of Ultroser G, and 10 ml of 100× Antibiotics-Antimycotic). The cells/tracheas were pipetted up and down vigorously 12-20 times, and vortexed to re-suspend pelleted tracheas if necessary. Trachea/cells were centrifuged again, supernatants were aspirated, pellets were re-suspended in 6 ml of stationary medium, and then everything was transferred to a Primaria plate (Corning, 353803) or a regular cell culture plate (Corning, 353003), and incubated at 37° C./5% CO2 for 6 hours. This was performed to plate out fibroblasts, thereby minimizing contamination of tracheal epithelial cells with fibroblasts. After incubation, non-adherent cells were collected by lightly washing the plates with stationary media present in the plates. Cells were pelleted, supernatant aspirated, cells re-suspended in 12 ml of stationary medium and added to a 6-well plate (2 ml/well) coated with rat tail collagen.
Tracheal epithelial cells were obtained from mice and processed for stationary culture as detailed above. The tracheal epithelial cells were placed onto rat-tail collagen coated wells and then incubated at 37° C./5% CO2 for 36-48 hrs. Over the course of about 48 hours, the cells seeded onto the collagen lost their cilia and underwent proliferative growth, expanding in numbers. […]

Data set [5] has as its system Hes1, Hes5, Hey1, Notch1, Psen1, Hif1α, nNOS, iNOS, eNOS. Briefly: qPCR of gene expression in mouse tracheal epithelial cells during ciliogenesis. The note with it: 2 nM DAPT vs untreated, varying time points in suspension culture, most prominently day 5. Format: cell-based. The method, then:
FIGS. 7(A-I) are graphs showing quantitative […] (qPCR) of gene expression in mouse tracheal epithelial cells during ciliogenesis. Cells were grown to confluence in stationary culture, treated with collagenase, then placed into suspension culture having 0 nM or 2 nM DAPT, which marked the “baseline” time point. At the indicated times, qPCR experiments were performed to detect gene expression of Hes1 (FIG. 7A), Hes5 (FIG. 7B), Hey1 (FIG. 7C), Psen1 (FIG. 7D), Hif1α (FIG. 7E), Notch1 (FIG. 7F), nNOS (FIG. 7G), iNOS (FIG. 7H), and eNOS (FIG. 7I).
Indeed, expression of multiple genes such as Hes1, Hes5, Hey1, Notch1, Psen1, Hif1α, nNOS, iNOS, and eNOS was altered at varying time points during ciliogenesis in suspension culture containing 2 nM DAPT, as compared to untreated (no DAPT) controls (FIGS. 7A-[…]). […] This effect was most marked for the three isoforms of nitric oxide synthase (NOS).
Background: In qPCR the cycle at which signal appears reflects the starting amount.

Setting [6] is: 12 subjects with congenital heart defects.
Where [7] appears, read: day eight, vs placebo and pre-treatment.
Where [8] appears, read: 2 nM DAPT vs untreated, 8 days suspension culture.

Entries after “also recorded” stand apart in the source; their conditions may differ.

As for `C[C@H](NC(=O)Cc1cc(F)cc(F)c1)C(=O)N[C@H](C(=O)OC(C)(C)C)c1ccccc1` [DAPT, N—[N-(3,5-Difluorophenacetyl)-L-alanyl]-S-phenylglycine t-butyl ester], in data set [1] (12 paired samples from subjects with congenital heart defects), the “percentage reciliation (percent ciliation)” value was “significantly greater; also recorded: significant increases”. In addition, in data set [1] (setting [6]), the cilia beat frequency result is listed as “significantly increased; also recorded: significant increases” and the cilia length entry was “significantly increased; also recorded: significant increases”. Further, in data set [2] (setting [7]), the “cilia number, cilia length, and/or cilia beat frequency of ependymal cells” value is recorded as “increased”. In data set [2] (some subjects), the “symptoms of hydrocephalus (e.g., headache)” value is given as “ameliorated”. Moreover, the “cilia number, cilia length, and/or cilia beat frequency of epithelial cells” value in data set [3] (setting [7]) is on record as “increased”. In data set [3] (some subjects), the “symptoms of COPD (e.g., coughing)” value was “ameliorated”. Further, in data set [4] (setting [8]), the cilia beat frequency result is recorded as “significantly increased” and the cilia length entry is “significantly increased”. Also, the “increased ciliogenesis over baseline (percent ciliation)” value in data set [4] (2 nM DAPT, 8 days suspension culture) is about 3 fold. The “toxicity to cells (cell death, very few if any ciliated cells)” value in data set [4] (2 μM DAPT or more, DMSO volume constant) is recorded as “toxic to cells”. Further, the “expression of Hes1, Hes5, Hey1, Notch1, Psen1, Hif1α, nNOS, iNOS and eNOS” value in data set [5] is “altered”.
